{
  "source": "patent US20240287123A1",
  "about": "(Victoria Link Limited, priority 2021, published 2024)",
  "key": {"[1]": {"assay": "Cytotoxicity in Akata cells (CTG), concurrent with EBV assay", "type": "cell-based", "conditions": "human, Akata cells (without virus induction), Table 1", "protocol": "(§1) Each experiment that evaluates the antiviral activity of compounds includes both positive and negative control compounds to ensure the performance of each assay. Concurrent assessment of cytotoxicity was also performed for each study in the same cell line and with the same compound exposure.\nAssays for EBV were performed by reported methods.^37 Akata cells were induced to undergo a lytic infection with 50 μg/ml of a goat anti-human IgG antibody. Experimental compounds were diluted within plates. The cells were added and incubated for 72 h. Similar plates were initiated without virus induction/addition and used for measuring cytotoxicity by the addition of CTG. For all assays, the replication of the virus was assessed by the quantification of viral DNA. […] Compound concentrations sufficient to reduce genome copy number by 50% were calculated from experimental data as well as compound cytotoxicity."}, "[2]": {"tested_on": "primary human MDM", "assay": "Toxicity to MDM: LDH assay and light microscopy", "type": "cell-based", "protocol": "Light microscopy was used to image MDMs on day 7 of infection. […] Colorimetric LDH assays were also performed on culture supernatants from these same cells on day 4 of infection to assess cell death.\nAt the end of each experiment, cells were imaged by light microscopy. After aspirating off media, cells were washed with PBS, and lysates were harvested in extraction buffer containing 0.1% Formic acid, 50% ACN, 40% MeOH, 10% H2O.\nDrug toxicity was analyzed using an LDH assay kit according to manufacturer's instructions (Abcam #ab65393, Toronto, Canada). Briefly, supernatants from duplicate plates per treatment condition were added to a 96-well plate. Each supernatant was run in triplicate. Provided assay buffer was added to culture supernatants after mixing with a substrate solution that turns orange upon lactate exposure. After incubation for 30-45 min, colorimetric signal was quantified an OD of 450 nm. LDH was a positive control as well as cells lysed with 10% lysis buffer in media representing the “high control” to which % cytotoxicity was measured. The reference sample was either control uninfected cells treated with DMSO or negative control HIV-infected cells treated with DMSO. Culture media alone was used as a technical negative control. This background signal that was subtracted from all test wells."}, "[3]": {"tested_on": "EBV (Akata/Akata)", "assay": "EBV assay: viral DNA quantification in induced Akata cells", "type": "cell-based, Epstein-Barr virus", "conditions": "for EC50: human gammaherpesvirus 4, Akata", "protocol": "Akata cells were obtained from Louisiana State University, Baton Rouge, LA. The HCMV strain AD169 was obtained from the American Type Culture Collection (ATCC, Manassas, VA). Akata cells latently infected with EBV were obtained from Louisiana State University, Baton Rouge, LA.\nas §1\nAssays for EBV were performed by reported methods.^37 Akata cells were induced to undergo a lytic infection with 50 μg/ml of a goat anti-human IgG antibody. Experimental compounds were diluted within plates. The cells were added and incubated for 72 h. Similar plates were initiated without virus induction/addition and used for measuring cytotoxicity by the addition of CTG. For all assays, the replication of the virus was assessed by the quantification of viral DNA. For EBV, primers 5′-[…]-3′ and 5′-CAG TTC CTC GCCTTAGGTTG-3 amplified a fragment corresponding to coordinates 96802-97234 in EBV genome (AJ507799). Compound concentrations sufficient to reduce genome copy number by 50% were calculated from experimental data as well as compound cytotoxicity."}, "[4]": {"tested_on": "HIVADA", "assay": "HIV p24 alphaLISA in infected monocyte derived macrophages", "type": "cell-based, Human Immunodeficiency Virus", "protocol": "Primary human MDMs were cultured from peripheral blood mononuclear cells and pre-treated for 24 h with ddhC (100 μM), compound 8 (100 μM), compound 21 (100 μM), emtricitabine control (15 μM, 10 μM, 1 μM, 0.1 μM), or the drug vehicle, DMSO. MDM were then infected with HIVADA in the presence of these compounds and treated daily (with compound), while culture supernatants were collected to quantify levels of HIV p24, a viral capsid protein, on days 2-7 of infection.\nLeukopaks from healthy donors were obtained from the New York Blood Center and processed by Ficoll gradient centrifugation to isolate peripheral blood mononuclear cells (PBMC). These PBMC were cultured adherently into monocyte derived macrophages (MDM), according to published protocols, on 60 mm dishes for 6 days with 10-20 ng/ml macrophage colony stimulating factor (M-CSF). MDM were pre-treated with ddhC, compound 8, compound 21, emtricitabine (Cat. No .: 10071), or DMSO vehicle at indicated concentrations for 24 hours (NIH AIDS Reagent Program, Bethesda, MD). Cells were left uninfected or infected for 24 h in the presence of one of the compounds listed above with 20 ng/mL HIVADA, a macrophage-tropic HIV strain originally derived from a person with HIV (NIH). Media was changed daily with the mentioned compounds added each time, and supernatants were collected on days 2, 3, 4, 5, 6, and 7 of infection. Each treatment condition was analyzed in duplicate plates per experiment.\nSupernatant samples were analyzed for the viral capsid protein, HIV p24, by a sensitive p24 alphaLISA according to the manufacturer's protocol (Perkin-Elmer, Waltham, MA). Treatment conditions were analyzed in duplicate plates, and each supernatant was analyzed in duplicate on a 96-well alphaLISA plate. These were then fit to a sigmoid standard curve to extrapolate HIV p24 levels in pg/mL within the assay limits of detection."}, "[5]": {"assay": "Cytotoxicity in HFF cells (CellTiter-Glo), concurrent with HCMV assay", "type": "cell-based", "conditions": "human", "protocol": "Human foreskin fibroblast (HFF) cells prepared from human foreskin tissue were obtained from the University of Alabama at Birmingham tissue procurement facility with approval from its IRB. The tissue was incubated at 4° C. for 4 h in Clinical Medium consisting of minimum essential media (MEM) with Earl's salts supplemented with 10% fetal bovine serum (FBS) (Hyclone, Inc. Logan UT), L-glutamine, fungizone, and vancomycin. Tissue was then placed in phosphate buffered saline (PBS), minced, rinsed to remove the red blood cells, and resuspended in trypsin/EDTA solution. The tissue suspension was incubated at 37° C. and gently agitated to disperse the cells, which were collected by centrifugation. Cells were resuspended in 4 ml Clinical Medium and placed in a 25 cm^2 flask and incubated at 37° C. in a humidified CO2 incubator for 24 h. The media was then replaced with fresh Clinical Medium and the cell growth was monitored daily until a confluent monolayer had formed. The HFF cells were then expanded through serial passages in standard growth medium of MEM with Earl's salts supplemented with 10% FBS, L-glutamine, penicillin, and gentamycin. The cells were passaged routinely and used for assays at or below passage ^10.37,38\nas §1\nAssays were performed in monolayers as described.37 Cells were seeded in 384 well plates and incubated for 24 h to allow the formation of confluent monolayers. Dilutions of test drug were prepared directly in the plates and the monolayers infected at a predetermined MOI based on virus used. After incubation, cytopathology was determined by the addition of CellTiter-Glo (CTG) reagent. Concentrations of test compound sufficient to reduce CPE by 50% (EC50) or decrease cell viability by 50% (CC50) were interpolated using standard methods in Microsoft Excel. Toxicity was measured using CTG as above."}},
  "note": "“Also recorded” adds a separate entry of the source. Where two headings read alike, the source gives them in different places.",
  "data": [
    {"smiles": "CC(C)C(=O)OCC1=C[C@@H](O)[C@H](n2ccc(N)nc2=O)O1", "note": "[Compound 8, 3′-Deoxy-3′,4′-didehydro-5′-O-isobutyroyl-cytidine]", "values": [
      {"measurement": "CC50 at 72 h", "setting": "[1]", "value": "> 50", "unit": "µM"},
      {"measurement": "LDH activity in HIV-infected MDMs relative to DMSO controls", "setting": "[2]; 100 μM, day 4 of infection", "value": "nearly identical"},
      {"measurement": "LDH activity relative to uninfected DMSO controls", "setting": "[2]; 100 μM, uninfected or HIV-infected MDMs, day 4 of infection", "value": "no significant difference"},
      {"measurement": "toxicity to MDMs", "setting": "[2]; 100 uM, visual inspection by light microscopy and colorimetric LDH assays", "value": "non-toxic"},
      {"measurement": "activity against EBV", "setting": "[3]; cell-based assay, highest concentration tested in primary assays 50 μM", "value": "performed most favourably"},
      {"measurement": "EC50", "setting": "[3]; Akata/Akata, Table 1, read-out: EBV EC50", "value": 7.6, "unit": "µM"},
      {"measurement": "EC50", "setting": "[3]; read-out: Result for compound (EC50/UM), EBV Akata/Akata, assay order Primary", "value": 7.59, "unit": "µM"},
      {"measurement": "EC50", "setting": "[3]; read-out: EC50 against EBV", "value": "7.6 to 38.7", "unit": "µM"},
      {"measurement": "reduction of p24 levels", "setting": "[4]; 10 μM, by day 6 of infection", "value": "~50", "unit": "%"},
      {"measurement": "levels of HIV p24 viral capsid protein", "setting": "[4]; 100 μM, infected MDM, days 2-7, compared with DMSO control", "value": "significantly reduce; also recorded: significantly decreased"},
      {"measurement": "impact on HIV replication relative to the DMSO control", "setting": "[4]; low doses: compound 8 compound 21 (0.1-1 μM) as printed", "value": "minimal impact"},
      {"measurement": "CC50", "setting": "[5]", "value": "> 50", "unit": "µM"}
    ]}
  ]
}
